According to US20260240154A1, “GLOBODERA PALLIDA CONTROL AGENT” (National Agriculture and Food Research Organization, priority 2021, published 2026):

Assays:
Globodera pallida eggs = assay: Hatching accelerating effect evaluation test for Globodera pallida (liquid immersion test); format: in vivo; details: 1 mL of 2 ppm test reagent solution added to 1 mL egg suspension; 16° C.; about 2 weeks; two replicates
Method: A predetermined amount of compound (I) was dissolved in an aqueous solution containing 0.05% (v/v) of polyoxyethylene sorbitan monolaurate (Tween20) to prepare a 100 ppm solution of compound (I).
The 100 ppm solution of compound (I) was further diluted with a 0.05% (v/v) Tween20 aqueous solution to prepare a test reagent solution with a concentration of compound (I) of 2 ppm.
The cysts of Globodera pallida increased in a greenhouse before the previous year were isolated from the soil, immersed in distilled water and kept at 16° C. for about 2 weeks were crushed with a scalpel and the eggs were taken out to obtain an egg suspension. After preparing a density of approximately 600 eggs per mL, Tween 20 was added to a concentration of 0.05% (v/v). 1 mL of this egg suspension was put into a 13.5 mL screw cap glass vial (inner diameter: 2.1 cm, height: 4.8 cm), and 1 mL each of a test reagent solution with a concentration of compound (I) of 2 ppm was added. It was covered and kept at 16° C.
About 2 weeks later, 1 mL was taken out, and the number of hatching larvae and the number of eggs were counted under a stereomicroscope. Two replicates were installed for each compound, and the average hatching rate was calculated.

Globodera pallida = assay: Reduction test of Globodera pallida egg density (pot test); format: in vivo; details: 30 days, three pots; for Average density reduction rate at 10 ppm (%): 32 mL of 10 ppm test reagent solution in 800 mL field soil; for Average density reduction rate at 100 ppm (%): 32 mL of 100 ppm test reagent solution in 800 mL field soil
Method: After 20 mg of compound (I) was dissolved in 1 mL of dimethylsulfoxide, 199 mL of a 0.1% polyoxyethylene sorbitan monolaurate aqueous solution was added thereto, to obtain a test reagent solution with a concentration of compound (I) of 100 ppm. Further, this was diluted 10-fold with distilled water, to prepare a 10 ppm test reagent solution.
Soil was collected from a field infected with Globodera pallida, and the egg density was investigated, as follows. The cysts were separated from 100 g of the dried soil by dry flotation-sieving method and crushed to release nematode eggs, and the number of eggs was counted under a stereomicroscope. This was taken as the initial density.
32 mL of the test reagent solution adjusted to 100 ppm or 10 ppm was added to 800 mL of the collected field soil, followed by stirring well. It was packed in a plastic pot (upper diameter: 10.5 cm, height: 22.5 cm), and placed in a greenhouse without any planting for 30 days. Each pot was watered with 26 mL of distilled water every 6 to 7 days.
After 30 days, the soil was spread on an aluminum bat and air-dried, and the cysts were separated from 100 g of the dry soil in the same manner as above, to count the number of remaining eggs (density after treatment). Three pots were installed per concentration for each compound, and the average density reduction rate was calculated from the initial density and the density after treatment.

Compound	Average hatching rate (%) (Globodera pallida eggs)	Average density reduction rate at 10 ppm (%) (Globodera pallida)	Average density reduction rate at 100 ppm (%) (Globodera pallida)
CC1(C)NC(=O)CC1c1ccc(Cl)cc1 (stereo not drawn) [Compound 3, 5,5-dimethyl-4-(4-chlorophenyl)-2-pyrrolidinone]	95.2	97.4	98.5
CC1(C)NC(=O)CC1c1ccc(Br)cc1 (stereo not drawn) [Compound 4, 5,5-dimethyl-4-(4-bromophenyl)-2-pyrrolidinone]	97.9	98.8	98.9
CC1(C)NC(=O)CC1c1ccc(F)c(F)c1 (stereo not drawn) [Compound 12, 5,5-dimethyl-4-(3,4-difluoro-phenyl)-2-pyrrolidinone]	65.4	97.7	98.8
Cc1ccc(C2CC(=O)OC2(C)C)cc1 (stereo not drawn) [Compound 18, 5,5-dimethyl-4-(p-tolyl)dihydrofuran-2(3H)-one]	97.1	81.7	96.2
CC1(C)OC(=O)CC1c1ccc(F)cc1 (stereo not drawn) [Compound 19, 4-(4-fluorophenyl)-5,5-dimethyldihydrofuran-2(3H)-one]	84.6	–	–
Cc1ccccc1C1CC(=O)OC1(C)C (stereo not drawn) [Compound 20, 5,5-dimethyl-4-(o-tolyl)dihydrofuran-2(3H)-one]	63.1	–	–
CC1(C)CC(=O)CC1c1ccccc1 (stereo not drawn) [Compound 21, 3,3-dimethyl-4-phenyl-cyclopentanone]	76.6	–	–
CC1(C)NC(=O)CCC1c1ccccc1 (stereo not drawn) [Compound A-1]	77.4	–	–
CC1(C)NC(=O)CCC1c1ccc(Br)cc1 (stereo not drawn) [Compound A-2]	97.4	–	–
Cc1ccc(C2CCC(=O)NC2(C)C)cc1 (stereo not drawn) [Compound A-3, 6,6-dimethyl-5-(p-tolyl)piperidin-2-one]	97.2	94.9	97.2
COC(=O)c1ccc(C2CCC(=O)NC2(C)C)cc1 (stereo not drawn) [Compound A-4]	68.8	–	–
CC1(C)SC(=O)CCC1c1ccccc1 (stereo not drawn) [Compound A-5]	92.6	–	–
CC1(C)SC(=O)CCC1c1ccc(Cl)cc1 (stereo not drawn) [Compound A-6, 5-(4-chlorophenyl)-6,6-dimethyl tetrahydro-2H-thiopyran-2-one]	93.6	–	–
Cc1ccc(C2CCC(=O)SC2(C)C)cc1 (stereo not drawn) [Compound A-7]	93.9	–	–
CC1(C)OC(=S)CC1c1ccccc1 (stereo not drawn) [Compound B-1]	70.4	–	–
Cc1ccc(C2CC(=S)OC2(C)C)cc1 (stereo not drawn) [Compound B-2, 5,5-dimethyl-4-(p-tolyl)dihydrofuran-2 (3H)-thione]	86.6	–	–
Cc1ccc(C)c(C2CC(=S)OC2(C)C)c1 (stereo not drawn) [Compound B-3]	21.2	–	–
CC1(C)SC(=O)CC1c1ccccc1 (stereo not drawn) [Compound B-4]	96.3	–	–
CC1(C)SC(=O)CC1c1ccc(Br)cc1 (stereo not drawn) [Compound B-5]	96.9	–	–
Cc1ccc(C2CC(=O)SC2(C)C)cc1 (stereo not drawn) [Compound B-6, 5,5-dimethyl-4-(p-tolyl)dihydrothiophene-2 (3H)-one]	97.1	–	–
CC1(C)SC(=O)CC1c1ccc(Cl)cc1 (stereo not drawn) [Compound B-7]	96.6	–	–
Cc1ccc(C)c(C2CC(=O)SC2(C)C)c1 (stereo not drawn) [Compound B-8]	51.2	–	–
CC1(C)NS(=O)(=O)CC1c1ccccc1 (stereo not drawn) [Compound B-9]	69.5	–	–

Compound	Average hatching rate (%) (Globodera pallida eggs)	Average density reduction rate at 10 ppm (%) (Globodera pallida)	Average density reduction rate at 100 ppm (%) (Globodera pallida)
CC1(C)NS(=O)(=O)CC1c1ccc(Br)cc1 (stereo not drawn) [Compound B-10]	82.7	–	–
Cc1ccc(C2CS(=O)(=O)NC2(C)C)cc1 (stereo not drawn) [Compound B-11]	80.2	–	–
CC1(C)NS(=O)(=O)CC1c1ccc(Cl)cc1 (stereo not drawn) [Compound B-12, 4-(4-chlorophenyl)-3,3-dimethylisothiazolidine-1,1-dioxide]	93.0	–	–
Cc1cccc(C2CC(=O)OC2(C)C)c1C [Compound D-1]	65.6	–	–
Cc1ccc(C2CC(=O)OC2(C)C)c(C)c1 [Compound D-2]	94.7	–	–
Cc1ccc(C2CC(=O)OC2(C)C)cc1C [Compound D-3]	58.8	–	–
Cc1cc(C)cc(C2CC(=O)OC2(C)C)c1 [Compound D-4]	40.1	–	–
CCc1ccc(C2CC(=O)OC2(C)C)cc1 [Compound D-5]	56.6	–	–
CC(C)(C)c1ccc(C2CC(=O)OC2(C)C)cc1 [Compound D-6]	67.5	–	–
CC1(C)NC(=O)CC1c1ccc(Cl)c(Cl)c1 [Compound D-7]	95.2	–	–
Cc1ccc(C2CC(=S)NC2(C)C)cc1 [Compound D-8]	91.8	–	–
CC1(C)OC(=O)C=C1c1ccc(Cl)cc1 [Compound D-9]	50.1	–	–
CC1(C)OC(=O)C=C1c1cccc2ccccc12 [Compound D-10]	36.4	–	–
CC1(C)OC(=O)C=C1c1ccc2ccccc2c1 [Compound D-11]	59.0	–	–
CC1(C)OC(=O)C=C1c1ccc(-c2ccc(Cl)cc2)cc1 [Compound D-12]	52.0	–	–
Cc1ccccc1C1=CC(=O)OC1(C)C [Compound D-13]	60.1	–	–
Cc1cccc(C2=CC(=O)OC2(C)C)c1C [Compound D-14]	63.7	–	–
Cc1ccc(C2=CC(=O)OC2(C)C)c(C)c1 [Compound D-15]	94.9	85.8	98.2
Cc1ccc(C)c(C2=CC(=O)OC2(C)C)c1 [Compound D-16]	66.5	–	–
Cc1cc(C)cc(C2=CC(=O)OC2(C)C)c1 [Compound D-17]	55.4	–	–
Cc1ccccc1C1=CC(=O)NC1(C)C [Compound D-18]	58.8	–	–
Cc1ccc(C2=CC(=O)NC2(C)C)c(C)c1 [Compound D-19]	95.7	–	–
